Measurements: ChEMBL document CHEMBL3045876, “Molecular modeling studies and synthesis of novel quinoxaline derivatives with potential anti-cancer activity as inhibitors of methionine synthase” (Med Chem Res, 2013)

Test system: MCF7
Assay: Cytotoxicity against Homo sapiens (human) MCF7 cells after 96 hr by MTT assay
Format: functional, cell-based
Conditions: MCF7, 96 h

| SMILES | IC50 |
| --- | --- |
| CNC(=O)c1ccc(NCc2cnc3cc([N+](=O)[O-])ccc3n2)cc1 | 47 µM |
| O=[N+]([O-])c1ccc2nc(CNc3ccccc3)cnc2c1 | 61 µM |
| Cc1cccc(NCc2cnc3cc([N+](=O)[O-])ccc3n2)c1 | 79 µM |
| CCNC(=O)c1ccc(NCc2cnc3cc([N+](=O)[O-])ccc3n2)cc1 | 49 µM |
| O=[N+]([O-])c1ccc2nc(CNc3ccc(Cl)cc3)cnc2c1 | 75 µM |
| Cc1ccc(NCc2cnc3cc([N+](=O)[O-])ccc3n2)cc1 | 68 µM |
| O=C(O)c1ccc(NCc2cnc3cc([N+](=O)[O-])ccc3n2)cc1 | 53 µM |
| O=[N+]([O-])c1ccc2nc(CCl)cnc2c1 | 66 µM |

Molecular target: Methionine synthase (Homo sapiens) (UniProt Q99707)
Assay: Inhibition of methionine synthase (unknown origin) by cell free assay
Set-up: concentration or dose not given beside the values
Conditions: concentration not given here

Methionine synthase (Homo sapiens), sequence (Q99707 whole entry): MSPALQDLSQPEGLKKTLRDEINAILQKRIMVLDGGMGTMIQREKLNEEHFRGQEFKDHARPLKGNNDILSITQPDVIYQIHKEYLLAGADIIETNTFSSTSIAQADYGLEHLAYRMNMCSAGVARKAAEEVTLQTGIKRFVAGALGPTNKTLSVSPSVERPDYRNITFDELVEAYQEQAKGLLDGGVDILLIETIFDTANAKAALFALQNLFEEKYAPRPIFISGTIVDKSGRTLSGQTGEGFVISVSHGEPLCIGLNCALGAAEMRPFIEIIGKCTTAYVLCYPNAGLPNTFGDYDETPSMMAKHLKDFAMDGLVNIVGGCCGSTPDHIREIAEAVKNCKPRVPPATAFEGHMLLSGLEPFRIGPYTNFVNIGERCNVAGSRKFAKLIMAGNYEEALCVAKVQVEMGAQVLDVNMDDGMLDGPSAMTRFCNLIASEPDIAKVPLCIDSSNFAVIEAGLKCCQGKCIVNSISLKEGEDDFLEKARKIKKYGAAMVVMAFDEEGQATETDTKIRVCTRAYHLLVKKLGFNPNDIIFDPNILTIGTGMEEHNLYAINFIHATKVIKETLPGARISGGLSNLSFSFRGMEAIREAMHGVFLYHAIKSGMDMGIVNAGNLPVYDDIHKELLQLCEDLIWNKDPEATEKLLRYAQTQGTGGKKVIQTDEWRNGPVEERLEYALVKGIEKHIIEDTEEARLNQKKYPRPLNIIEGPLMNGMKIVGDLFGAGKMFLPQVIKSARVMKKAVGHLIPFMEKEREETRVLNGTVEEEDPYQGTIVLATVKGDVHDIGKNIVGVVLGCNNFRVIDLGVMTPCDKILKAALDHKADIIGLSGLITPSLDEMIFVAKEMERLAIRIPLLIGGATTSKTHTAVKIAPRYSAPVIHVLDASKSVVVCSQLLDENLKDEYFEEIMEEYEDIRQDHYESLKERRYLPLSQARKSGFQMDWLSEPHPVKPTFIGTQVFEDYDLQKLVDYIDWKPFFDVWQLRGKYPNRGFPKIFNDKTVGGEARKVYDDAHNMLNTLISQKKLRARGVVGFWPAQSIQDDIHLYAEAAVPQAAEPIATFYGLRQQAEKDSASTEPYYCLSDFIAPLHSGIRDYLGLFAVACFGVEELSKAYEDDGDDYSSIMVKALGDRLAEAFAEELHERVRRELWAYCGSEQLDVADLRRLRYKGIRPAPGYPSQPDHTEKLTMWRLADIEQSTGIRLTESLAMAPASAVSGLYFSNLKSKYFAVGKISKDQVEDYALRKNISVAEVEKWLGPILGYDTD

| inhibition | SMILES |
| --- | --- |
| 65.9% | O=[N+]([O-])c1ccc2nc(CNc3ccccc3)cnc2c1 |
| 45% | Cc1cccc(NCc2cnc3cc([N+](=O)[O-])ccc3n2)c1 |
| 45% | O=[N+]([O-])c1ccc2nc(CNc3ccc(Cl)cc3)cnc2c1 |
| 65% | Cc1ccc(NCc2cnc3cc([N+](=O)[O-])ccc3n2)cc1 |
| 89% | O=C(O)c1ccc(NCc2cnc3cc([N+](=O)[O-])ccc3n2)cc1 |
| 55% | O=[N+]([O-])c1ccc2nc(CCl)cnc2c1 |

Test system: PC-3
Assay: Cytotoxicity against Homo sapiens (human) PC3 cells after 96 hr by MTT assay
Format: functional, cell-based
Conditions: PC-3, 96 h

| SMILES | IC50 |
| --- | --- |
| CNC(=O)c1ccc(NCc2cnc3cc([N+](=O)[O-])ccc3n2)cc1 | 49 µM |
| O=[N+]([O-])c1ccc2nc(CNc3ccccc3)cnc2c1 | 56 µM |
| Cc1cccc(NCc2cnc3cc([N+](=O)[O-])ccc3n2)c1 | 77 µM |
| CCNC(=O)c1ccc(NCc2cnc3cc([N+](=O)[O-])ccc3n2)cc1 | 66 µM |
| O=[N+]([O-])c1ccc2nc(CNc3ccc(Cl)cc3)cnc2c1 | 70 µM |
| Cc1ccc(NCc2cnc3cc([N+](=O)[O-])ccc3n2)cc1 | 57 µM |
| O=C(O)c1ccc(NCc2cnc3cc([N+](=O)[O-])ccc3n2)cc1 | 45 µM |
| O=[N+]([O-])c1ccc2nc(CCl)cnc2c1 | 70 µM |
